Drawing on US11299493B2, “Heterocyclic compounds and uses thereof” (NUVATION BIO INC., priority 2017, dated 2022), this text covers IC50 for 47 compounds.

Molecules are shown by their SMILES. Where two headings read alike, the source gives them in different places.

One assay has as its target WEE1 kinase enzyme (Homo sapiens (Human), UniProt P30291). Briefly: WEE1 IC50 determination, LanthaScreen Terbium Labeled TR-FRET kinase assay. In kind it is biochemical. The conditions noted are these: WEE1 enzyme 1 nM, ATP 10 μM, 1 h. The protocol: IC50 values of compounds against WEE1 kinase enzyme were determined by LanthaScreen™ Terbium Labeled TR-FRET assay. […] After 1 h, […] stop solution containing Terbium labeled antibody (4 nM) (#PV3529, Invitrogen, Life Technologies Grand Island, N.Y.) and EDTA (#E5134, Sigma, St-Louis, Mo.) (20 mM) in TR-FRET dilution buffer (#PV3574, Invitrogen, Life Technologies Grand Island, N.Y.) was added. Readings were taken in a Synergy Neo Plate reader (BioTek, Winooski) at single excitation of 340 nm and Dual emission at 495 nm and 520 nm respectively.
The % activity of test samples was calculated as (Sample−Min)*100/(Max−Min). [Max: DMSO control, complete reaction with enzyme & DMSO and Min: No enzyme & DMSO].
A general note: TR-FRET usually uses a lanthanide donor and a delayed reading to cut background.

In a further assay the test system is A427 cells. Briefly: Cytotoxicity assay (resazurin) in A427 cells. It counts as cell-based. The conditions noted are these: read-out: Cell Viability IC50 A427. The procedure: Cells were allowed to grow at 37° C. for 24 hr in 5% CO2 environment (culture conditions) in a Nuaire incubator (humidified). Serially diluted test compounds (100 μL) within the desired testing concentration ranges were added to the culture plate were further incubated in culture conditions for 72 hr and 96 hr for A427 and A549 respectively. The experiment was terminated at the designated incubation time by replacing the medium with 100 μL of 1 mM of resazurin (R7017; Sigma) prepared in respective culture medium, and the plates were further incubated in culture conditions for 4-6 hr. Fluorescence was recorded using a multimodal plate reader (Biotek Synergy Neo) at an excitation wavelength of 535 nm and emission wavelength of 590 nm to obtain relative fluorescence units. Data analysis was done by subtracting the background fluorescence (only medium blank) value from each reading and then normalizing with the vehicle control (DMSO treated cells) to obtain percent survival/proliferation. Percent survival was then subtracted by 100 to get the percent inhibition of proliferation which was used to calculate IC50 values.
On the technique in general: Alamar Blue is a resazurin reagent that responds to reducing activity.

Where [1] appears, read: Homo sapiens, A-427, 72 h, A427, 72 hr.

Chain of WEE1 kinase enzyme (P30291 whole entry): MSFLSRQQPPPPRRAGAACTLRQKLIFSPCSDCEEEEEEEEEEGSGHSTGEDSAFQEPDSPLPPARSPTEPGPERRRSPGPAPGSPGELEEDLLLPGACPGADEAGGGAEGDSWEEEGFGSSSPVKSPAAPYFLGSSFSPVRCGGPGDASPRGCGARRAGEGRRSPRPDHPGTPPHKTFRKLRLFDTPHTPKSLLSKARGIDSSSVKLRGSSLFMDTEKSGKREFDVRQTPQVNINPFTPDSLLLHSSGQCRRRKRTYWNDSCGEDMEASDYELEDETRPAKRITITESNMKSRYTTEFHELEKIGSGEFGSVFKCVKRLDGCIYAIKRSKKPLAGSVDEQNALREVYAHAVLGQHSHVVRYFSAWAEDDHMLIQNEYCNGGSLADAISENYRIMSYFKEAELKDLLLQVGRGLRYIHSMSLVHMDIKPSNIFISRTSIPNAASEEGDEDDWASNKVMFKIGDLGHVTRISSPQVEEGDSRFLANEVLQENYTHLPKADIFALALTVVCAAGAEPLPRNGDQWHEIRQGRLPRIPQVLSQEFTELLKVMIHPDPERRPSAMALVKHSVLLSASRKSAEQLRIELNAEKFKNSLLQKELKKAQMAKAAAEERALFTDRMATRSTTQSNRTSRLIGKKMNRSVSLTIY

One may read the IC50 as the concentration needed to halve the response being measured. Take `CCn1c(=O)c2cnc(Nc3ccc4c(c3)CNCC4)nc2n1-c1cccc(OC)n1` [Example 1.18]: the results for the IC50 at WEE1 kinase enzyme and in the assay on A427 cells (setting [1]) were 25 nM and 7060 nM, respectively.

With `CCn1c(=O)c2cnc(Nc3ccc4c(c3)CCNC4)nc2n1-c1cccc(OC)n1` [Example 1.23], the IC50 at WEE1 kinase enzyme was determined as 40 nM; in the assay with A427 cells (setting [1]), 3210 nM.

Turning to `CC(C)(O)c1cccc(-n2c3nc(Nc4ccc5c(c4)CCNC5)ncc3c(=O)n2C2CC2)n1` [Example 1.24], the results for the IC50 at WEE1 kinase enzyme and in the assay on A427 cells (setting [1]) were 23 nM and 6030 nM, respectively.

On to `CCn1c(=O)c2cnc(Nc3ccc4c(c3)CNCC4)nc2n1-c1cccc(C(=O)NC)n1` [Example 1.25], for which the IC50 on WEE1 kinase enzyme was 99 nM; in the assay with A427 cells (setting [1]), more than 30000 nM.

As to `CCn1c(=O)c2cnc(Nc3ccc4c(c3)CNCC4)nc2n1-c1cccc(NC)n1` [Example 1.27], the IC50 is 10 nM on WEE1 kinase enzyme and 4140 nM in the assay on A427 cells (setting [1]).

As for `CCn1c(=O)c2cnc(Nc3ccc4c(c3)CNCC4)nc2n1-c1cccc(N2CCCC2=O)n1` [Example 1.31], the results for the IC50 on WEE1 kinase enzyme and with A427 cells (setting [1]) were 5 nM and 1320 nM, respectively.

Regarding `CCn1c(=O)c2cnc(Nc3ccc4c(c3)CNCC4)nc2n1-c1cccc(C(F)(F)F)n1` [Example 1.41], the IC50 at WEE1 kinase enzyme turned out to be 44 nM; with A427 cells (setting [1]), 5120 nM.

Turning to `CCn1c(=O)c2cnc(Nc3ccc4c(c3)CNCC4)nc2n1-c1cccc(NC(C)=O)n1` [Example 1.47], the IC50 turned out to be 5 nM at WEE1 kinase enzyme and 3020 nM with A427 cells (setting [1]).

As for `CC(C)n1c(=O)c2cnc(Nc3ccc4c(c3)CCNC4)nc2n1-c1cccc(C(C)(C)O)n1` [Example 1.69], the IC50 at WEE1 kinase enzyme came out at 11 nM; in the assay with A427 cells (setting [1]), 485 nM.

As for `CCn1c(=O)c2cnc(Nc3ccc4c(c3)CNCC43CC3)nc2n1-c1cccc(C(C)(C)O)n1` [Example 1.70], the IC50 worked out at 15 nM on WEE1 kinase enzyme and 640 nM in the assay on A427 cells (setting [1]).

On to `CCn1c(=O)c2cnc(Nc3cccc4c3CCNC4)nc2n1-c1cccc(C(C)(C)O)n1` [Example 1.125], for which the half-inhibitory concentration (IC50) at WEE1 kinase enzyme is more than 5000 nM; in the assay on A427 cells (setting [1]) it was more than 30000 nM.

Take `CCn1c(=O)c2cnc(Nc3ccc4c(c3)CNCC4)nc2n1-c1cccc(C(C)(C)C)n1` [Example 1.126]: the values for the half-inhibitory concentration (IC50) at WEE1 kinase enzyme and with A427 cells (setting [1]) were less than 1 nM and 275 nM, respectively.

`CCn1c(=O)c2cnc(Nc3cnc4c(c3)CNCC4)nc2n1-c1cccc(C(C)(C)O)n1` [Example 1.127]: the IC50 is 58 nM at WEE1 kinase enzyme and more than 23000 nM in the assay with A427 cells (setting [1]).

Regarding `CCn1c(=O)c2cnc(Nc3ccc4c(c3)CN(CCO)CC4)nc2n1-c1cccc(C(C)(C)O)n1` [Example 1.128], the IC50 stood at 6 nM on WEE1 kinase enzyme and 1550 nM in the assay on A427 cells (setting [1]).

Consider `CCn1c(=O)c2cnc(Nc3ccc4c(c3)CN(CC(=O)N(C)C)CC4)nc2n1-c1cccc(C(C)(C)O)n1` [Example 1.129], for which the results for the IC50 at WEE1 kinase enzyme and with A427 cells (setting [1]) were 6 nM and 865 nM, respectively.

As to `CCn1c(=O)c2cnc(Nc3ccc4c(c3)CNCC4)nc2n1-c1ccccn1` [Example 1.130], the IC50 amounted to 18 nM at WEE1 kinase enzyme and 9070 nM with A427 cells (setting [1]).

For `CCn1c(=O)c2cnc(Nc3ccc4c(c3)CCNC4)nc2n1-c1cccc(C(C)(C)C)n1` [Example 1.131], the IC50 at WEE1 kinase enzyme stood at 0.6 nM; with A427 cells (setting [1]), 285 nM.

Consider `CCn1c(=O)c2cnc(Nc3ccc4c(c3)CNC4)nc2n1-c1cccc(C(C)(C)O)n1` [Example 1.132], for which the IC50 on WEE1 kinase enzyme worked out at 4 nM; in the assay on A427 cells (Homo sapiens, A-427, A427, 72 hr), 1680 nM.

Take `CCn1c(=O)c2cnc(Nc3ccc4c(c3)CC(N(C)C)C4)nc2n1-c1cccc(C(C)(C)O)n1` (centres unmarked) [Example 1.133]: the results for the IC50 at WEE1 kinase enzyme and with A427 cells (setting [1]) were 6 nM and 583 nM, respectively.

With `CCn1c(=O)c2cnc(Nc3ccc4c(c3)CNCC4)nc2n1-c1ccnc(C(C)(C)C)c1` [Example 1.134], the IC50 turned out to be 9 nM on WEE1 kinase enzyme and 820 nM with A427 cells (setting [1]).

As for `CCn1c(=O)c2cnc(Nc3ccc4c(c3)CC(N(C)C)CC4)nc2n1-c1cccc(C(C)(C)O)n1` (centres unmarked) [Example 1.135], the IC50 on WEE1 kinase enzyme worked out at 20 nM; in the assay with A427 cells (setting [1]) it was 440 nM.

For `CCn1c(=O)c2cnc(Nc3ccc4c(c3)CCNC4)nc2n1-c1ccnc(C(C)(C)C)c1` [Example 1.136], the IC50 is 7 nM on WEE1 kinase enzyme and 1090 nM with A427 cells (setting [1]).

As for `CC(C)n1c(=O)c2cnc(Nc3ccc4c(c3)CNCC4)nc2n1-c1ccnc(C(C)(C)C)c1` [Example 1.137], the IC50 was 4 nM on WEE1 kinase enzyme and 415 nM with A427 cells (setting [1]).

Consider `CC(C)n1c(=O)c2cnc(Nc3ccc4c(c3)CNCC4)nc2n1-c1cccc(C(C)(C)F)n1` [Example 1.139], for which the IC50 on WEE1 kinase enzyme amounted to 4 nM; in the assay with A427 cells (setting [1]) it was 355 nM.

Take `CCn1c(=O)c2cnc(Nc3cnc4c(c3)CNCC4)nc2n1-c1cccc(C(C)(C)C)n1` [Example 1.141]: the values for the IC50 on WEE1 kinase enzyme and with A427 cells (setting [1]) were 24 nM and 2970 nM, respectively.

With `CCn1c(=O)c2cnc(Nc3ccc4c(c3)CNC4)nc2n1-c1cccc(C(C)(C)C)n1` [Example 1.142], the IC50 was 4 nM on WEE1 kinase enzyme and 390 nM with A427 cells (setting [1]).

As for `CC(C)n1c(=O)c2cnc(Nc3ccc4c(c3)CNCC4)nc2n1-c1cccc(C(C)(C)C)n1` [Example 1.144], the IC50 was 0.6 nM on WEE1 kinase enzyme and 260 nM in the assay on A427 cells (setting [1]).

For `CC(C)n1c(=O)c2cnc(Nc3ccc4c(c3)CCNC4)nc2n1-c1cccc(C(C)(C)C)n1` [Example 1.145], the figures for the IC50 on WEE1 kinase enzyme and in the assay with A427 cells (setting [1]) were 3 nM and 255 nM, respectively.

Take `CC(C)(C)c1cccc(-n2c3nc(Nc4ccc5c(c4)CCNC5)ncc3c(=O)n2C2CC2)n1` [Example 1.147]: the IC50 at WEE1 kinase enzyme was found to be 7 nM; in the assay on A427 cells (A427, 72 hr), 370 nM.

Consider `CC(C)n1c(=O)c2cnc(Nc3ccc4c(c3)CNCC4)nc2n1-c1cccc(C2CC2)n1` [Example 1.148], for which the IC50 on WEE1 kinase enzyme worked out at 2 nM; with A427 cells (setting [1]), 1080 nM.

As to `CC(C)n1c(=O)c2cnc(Nc3ccc4c(c3)CCNC4)nc2n1-c1cccc(C2CC2)n1` [Example 1.149], the IC50 amounted to 3 nM at WEE1 kinase enzyme and 1130 nM in the assay on A427 cells (setting [1]).

Regarding `CC(n1c(=O)c2cnc(Nc3ccc4c(c3)CNCC4)nc2n1-c1cccc(C(C)(C)C)n1)C(F)(F)F` (centres unmarked) [Example 1.150], the IC50 at WEE1 kinase enzyme is 13 nM; in the assay on A427 cells (setting [1]) it was 3000 nM.

As for `CC(C)(C)c1cccc(-n2c3nc(Nc4ccc5c(c4)CNCC5)ncc3c(=O)n2C(C)(C)C)n1` [Example 1.151], the IC50 at WEE1 kinase enzyme was found to be 2540 nM; in the assay on A427 cells (setting [1]), 3380 nM.

On to `CC(C)(C)c1cccc(-n2c3nc(Nc4ccc5c(c4)CNCC5)ncc3c(=O)n2CC(F)(F)F)n1` [Example 1.152], for which the results for the IC50 on WEE1 kinase enzyme and in the assay on A427 cells (setting [1]) were less than 1 nM and 1020 nM, respectively.

In the case of `CC(CO)n1c(=O)c2cnc(Nc3ccc4c(c3)CNCC4)nc2n1-c1cccc(C(C)(C)C)n1` (centres unmarked) [Example 1.153], the IC50 was 16 nM on WEE1 kinase enzyme and 2540 nM with A427 cells (setting [1]).

As to `COCCn1c(=O)c2cnc(Nc3ccc4c(c3)CNCC4)nc2n1-c1cccc(C(C)(C)C)n1` [Example 1.154], the results for the IC50 on WEE1 kinase enzyme and in the assay with A427 cells (setting [1]) were 8 nM and 2370 nM, respectively.

In the case of `CC(C)n1c(=O)c2cnc(Nc3ccc4c(c3)CCNC4)nc2n1-c1cccc(C(C)(C)C)c1` [Example 1.155], the IC50 at WEE1 kinase enzyme is 2 nM; in the assay with A427 cells (setting [1]) it was 1980 nM.

Turning to `CC(C)n1c(=O)c2cnc(Nc3ccc4c(c3)CNCC4)nc2n1-c1cccc(C(C)(C)C)c1` [Example 1.156], the figures for the IC50 at WEE1 kinase enzyme and in the assay with A427 cells (setting [1]) were 1 nM and 1770 nM, respectively.

For `C=CCn1c(=O)c2cnc(Nc3ccc4c(c3)CCNC4)nc2n1-c1ccnc(C(C)(C)C)c1` [Example 1.157], the IC50 came out at 5 nM on WEE1 kinase enzyme and 460 nM in the assay on A427 cells (setting [1]).

Consider `C=CCn1c(=O)c2cnc(Nc3ccc4c(c3)CNCC4)nc2n1-c1ccnc(C(C)(C)C)c1` [Example 1.158], for which the results for the IC50 on WEE1 kinase enzyme and in the assay on A427 cells (setting [1]) were 4 nM and 200 nM, respectively.

Take `CC(C)(C)c1cc(-n2c3nc(Nc4ccc5c(c4)CCNC5)ncc3c(=O)n2C2CC2)ccn1` [Example 1.159]: the values for the IC50 on WEE1 kinase enzyme and with A427 cells (setting [1]) were 30 nM and 3320 nM, respectively.

For the compound `CC(C)(C)c1cc(-n2c3nc(Nc4ccc5c(c4)CNCC5)ncc3c(=O)n2C2CC2)ccn1` [Example 1.160], the values for the IC50 at WEE1 kinase enzyme and in the assay on A427 cells (setting [1]) were 30 nM and 3980 nM, respectively.

With `CC(C)n1c(=O)c2cnc(Nc3ccc4c(c3)CCNC4)nc2n1-c1ccn(C(C)(C)C)n1` [Example 2.454], on WEE1 kinase enzyme, the IC50 came out at 48 nM.

As for `CC(C)(F)c1cc(-n2c3nc(Nc4ccc5c(c4)CCNC5(C)C)ncc3c(=O)n2C2CC2)ccn1` [Example 2.555], the IC50 at WEE1 kinase enzyme was found to be 153 nM.

Take `CC(C)(C)c1cc(-n2c3nc(Nc4ccc5c(c4)CNCC5(C)C)ncc3c(=O)n2C2CC2)ccn1` [Example 2.600]: the IC50 on WEE1 kinase enzyme came to 25 nM.

As to `CC(C)n1c(=O)c2cnc(Nc3ccc4c(c3)CCNC4)cc2n1-c1ccnc(C(C)(C)C)c1` [Example 2.732], the IC50 on WEE1 kinase enzyme turned out to be 179 nM.

In the case of `CC(C)n1c(=O)c2cnc(Nc3ccc4c(c3)CNCC4)cc2n1-c1ccnc(C(C)(C)C)c1` [Example 2.744], the IC50 with A427 cells (setting [1]) worked out at 10400 nM.
